Laboratory results published in patent publication US12559505B2, “IDH mutant inhibitor and use thereof” (WIGEN BIOMEDICINE TECHNOLOGY (SHANGHAI) CO., LTD., priority 2020, dated 2026).

Target: T1, IDH R132C (Homo sapiens, UniProt O75874, R132C)
T1 construct: expressed in transfected cells; host or cells: U87 cells
Experiment: Detection of 2-HG in supernatant of U87-IDH R132C cells
Format: cell-based
Conditions: 72 h, LC-MS-MS, vs control; for inhibition at 0.001 µM: read-out: Inhibition rate of compounds on 2-HG in the supernatant of U87-IDH R132C cells, 1 nM; for inhibition at 0.01 µM: read-out: Inhibition rate of compounds on 2-HG in the supernatant of U87-IDH R132C cells, 10 nM; for inhibition at 0.1 µM: read-out: Inhibition rate of compounds on 2-HG in the supernatant of U87-IDH R132C cells, 100 nM
Description: U87 cells overexpressing the IDH R132C mutation were seeded in a 48-well plate at 50,000 cells/well. After the cells were incubated overnight for adhesion, the supernatant was removed. The cell culture media containing serially diluted compounds were added, and the cells were incubated for 72 h. After 72 h, the cultures were collected and diluted 10-fold with water, and acetonitrile was added to extract the metabolites. The 2-HG content in the cultures was analyzed by LC-MS-MS, and the percentage inhibition of compounds on 2-HG in the supernatant was calculated as compared with the control.

T1 sequence (O75874 whole entry R132C): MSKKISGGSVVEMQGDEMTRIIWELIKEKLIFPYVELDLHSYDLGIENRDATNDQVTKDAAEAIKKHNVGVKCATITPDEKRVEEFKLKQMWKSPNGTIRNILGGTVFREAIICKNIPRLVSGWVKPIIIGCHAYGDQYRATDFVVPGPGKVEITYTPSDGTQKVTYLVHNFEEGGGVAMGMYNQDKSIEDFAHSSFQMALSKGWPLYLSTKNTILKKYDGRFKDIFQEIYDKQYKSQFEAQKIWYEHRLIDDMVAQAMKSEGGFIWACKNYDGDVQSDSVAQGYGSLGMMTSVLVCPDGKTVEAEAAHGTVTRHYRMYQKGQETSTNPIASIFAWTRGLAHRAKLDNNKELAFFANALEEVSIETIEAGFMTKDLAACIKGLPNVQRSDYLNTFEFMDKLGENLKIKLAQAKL

inhibition at 0.001 µM (1 nM compound) | inhibition at 0.01 µM (10 nM compound) | inhibition at 0.1 µM (100 nM compound) | SMILES | Inhibition rate of compounds on 2-HG in the supernatant of U87-IDH R132C cells, 1 nM (1 nM compound) | Inhibition rate of compounds on 2-HG in the supernatant of U87-IDH R132C cells, 10 nM (10 nM compound) | Inhibition rate of compounds on 2-HG in the supernatant of U87-IDH R132C cells, 100 nM (100 nM compound)
– | – | – | C=CC(=O)N1CC2(CC([C@@H](CC3CCC3)c3ccc([C@H](C)Nc4ncc5c(n4)N(CC)C(=O)OC5)cc3)C2)C1 [Compound 1-1] | C (C represents an inhibition rate greater than 30% but less than or equal to 60%) | A (A represents an inhibition rate greater than 90%) | A (A represents an inhibition rate greater than 90%)
30 to 60% | > 90% | > 90% | C=CC(=O)NC1CCN(C(CC2CC2)c2ccc([C@H](C)Nc3ncc4c(n3)N(CC)C(=O)OC4)cc2)CC1 (stereo partly drawn) [Compound 11] | – | – | –
30 to 60% | > 90% | > 90% | C=CC(=O)NC1CN(C(CC2CC2)c2ccc([C@H](C)Nc3ncc4c(n3)N(CC)C(=O)OC4)cc2)C1 (stereo partly drawn) [Compound 14] | – | – | –
30 to 60% | 60 to 90% | > 90% | C=CC(=O)N(C)C1CCN(C(CC2CC2)c2ccc([C@H](C)Nc3ncc4c(n3)N(CC)C(=O)OC4)cc2)CC1 (stereo partly drawn) [Compound 16] | – | – | –
30 to 60% | > 90% | > 90% | C=CC(=O)N(C)C1CN(C(CC2CC2)c2ccc([C@H](C)Nc3ncc4c(n3)N(CC)C(=O)OC4)cc2)C1 (stereo partly drawn) [Compound 19] | – | – | –
< 30% | 60 to 90% | > 90% | C=CC(=O)NC1CCN(C(CC2CC2)c2ccc([C@H](C)Nc3ncc4c(n3)N(C(C)C)C(=O)OC4)cc2)CC1 (stereo partly drawn) [Compound 22] | – | – | –
30 to 60% | 60 to 90% | > 90% | C=CC(=O)NC1CN(C(CC2CC2)c2ccc([C@H](C)Nc3ncc4c(n3)N(C(C)C)C(=O)OC4)cc2)C1 (stereo partly drawn) [Compound 23] | – | – | –
30 to 60% | > 90% | > 90% | C=CC(=O)N(C)C1CCN(C(CC2CC2)c2ccc([C@H](C)Nc3ncc4c(n3)N(C(C)C)C(=O)OC4)cc2)CC1 (stereo partly drawn) [Compound 24] | – | – | –
30 to 60% | > 90% | > 90% | C=CC(=O)N(C)C1CN(C(CC2CC2)c2ccc([C@H](C)Nc3ncc4c(n3)N(C(C)C)C(=O)OC4)cc2)C1 (stereo partly drawn) [Compound 25] | – | – | –
30 to 60% | 60 to 90% | > 90% | C=CC(=O)N1CC2(C1)CN(C(CC1CC1)c1ccc(C3(Nc4ncc5c(n4)N(CC)C(=O)OC5)CC3)cc1)C2 (stereo not drawn) [Compound 26] | – | – | –
30 to 60% | 60 to 90% | > 90% | C=CC(=O)NC1CCN(C(CC2CC2)c2ccc(C3(Nc4ncc5c(n4)N(CC)C(=O)OC5)CC3)cc2)CC1 (stereo not drawn) [Compound 27] | – | – | –
< 30% | 60 to 90% | > 90% | C=CC(=O)NC1CN(C(CC2CC2)c2ccc(C3(Nc4ncc5c(n4)N(CC)C(=O)OC5)CC3)cc2)C1 (stereo not drawn) [Compound 28] | – | – | –
< 30% | 60 to 90% | > 90% | C=CC(=O)N(C)C1CCN(C(CC2CC2)c2ccc(C3(Nc4ncc5c(n4)N(CC)C(=O)OC5)CC3)cc2)CC1 (stereo not drawn) [Compound 29] | – | – | –
30 to 60% | 60 to 90% | > 90% | C=CC(=O)N(C)C1CN(C(CC2CC2)c2ccc(C3(Nc4ncc5c(n4)N(CC)C(=O)OC5)CC3)cc2)C1 (stereo not drawn) [Compound 30] | – | – | –
< 30% | 60 to 90% | > 90% | C=CC(=O)N1CC2(C1)CN(C(CC1CC1)c1ccc(C3(Nc4ncc5c(n4)N(C(C)C)C(=O)OC5)CC3)cc1)C2 (stereo not drawn) [Compound 31] | – | – | –
30 to 60% | 30 to 60% | > 90% | C=CC(=O)NC1CCN(C(CC2CC2)c2ccc(C3(Nc4ncc5c(n4)N(C(C)C)C(=O)OC5)CC3)cc2)CC1 (stereo not drawn) [Compound 32] | – | – | –
60 to 90% | > 90% | > 90% | C=CC(=O)N1CC2(C1)CN([C@@H](CC)c1ccc([C@H](C)Nc3ncc4c(n3)N(CC)C(=O)OC4)cc1)C2 [Compound 36-1] | – | – | –
